Source: US20160051665A1, “INDUCTION OF IMMUNE RESPONSE” (priority 2010, published 2016)
“Also recorded” adds a separate entry of the source.

Tests used:
[1] = test system: woodchuck PBMCs; assay: PBMC proliferation assay (stimulation index) with PBMCs of treated woodchucks; format: in vivo
Protocol: T cell responses against WHY were determined using in vitro stimulators at concentrations optimal for cultures of woodchuck PBMCs (29, 30). Stimulators consisted of native 22-nm WHsAg (2 μg/ml), recombinant WHcAg (2 μg/ml), or synthetic peptides (10 μg/ml) corresponding to either native viral sequences or predicted N-de-glycosylated sequences (Table 1, below).
The in vitro proliferation assay using woodchuck PBMCs labeled dividing cells with [2-^3H]adenine (Amersham Pharmacia Biotech, Inc., Arlington Heights, Ill.). Woodchuck PBMCs were isolated from whole blood and stimulated as described (30, 31). Counts per minute of triplicate PBMC cultures were averaged and expressed as a stimulation index (SI) by dividing the average sample counts per minute in the presence of the stimulator by that observed in the absence of stimulator (six replicates). A SI value of ≧3.1 was considered to represent a positive, specific T-cell response.
Woodchucks chronically infected with WHV experienced significant immunological responses to envelope proteins following immunization with WHsAg-containing vaccines, especially in the context of low viral and antigen loads following treatment with an effective antiviral agent, 1-(2-fluoro-5-methyl-beta-L-arabinofuranosyl)-uracil (L-FMAU) (29, 35). […] Animals were scored as positive if cells proliferated above the cut-off value of 2: 3.1. […]

[2] = serum ALT, marker of hepatocellular injury, in woodchucks; format: in vivo, woodchuck
Protocol: All experimental procedures involving woodchucks were performed under protocols approved by the Cornell University Institutional Animal Care and Use Committee. Woodchucks were born to WHV-negative females in environmentally controlled laboratory animal facilities and inoculated at 3 days of age with 5 million infectious doses of a standardized WHV inoculum (23). Woodchucks were selected as chronic WHV carriers based on persistent detection of WHV surface antigen (WHsAg) and WHV DNA in serum prior to treatments. All animals were free of HCC at the beginning of the study as determined by hepatic ultrasound examination and normal serum activity of γ-glutamyl-transferase (GGT).
Twenty adult chronically infected woodchucks were stratified by age, sex, body weight, serum viral load, and serum GGT activity into four treatment groups of five animals each. Drug was administered orally at 100 mg/kg (in sterile water), chosen after an initial dose finding trial. […] Prior to alum adsorption, vaccine was tested in naïve, WHV-susceptible animals and no residual virus was detected. […]
Serum WHV DNA was measured quantitatively by dot blot hybridization (assay sensitivity, ≧1.0×10^7 WHV genome equivalents per ml [WHVge/ml]) (25). Serum WHsAg, antibodies to WHV core antigen (anti-WHc), and WHV surface antigen (anti-WHs) were determined with WHV-specific enzyme immunoassays (26). […]

CCCC(=O)O[C@H]1CN2CC[C@H](O)[C@@H]2[C@@H](O)[C@H]1O [BuCas, 6-O-butanoyl castanospermine]
PBMC response to paired N-peptides versus D-peptides ([1]; glycosylation sequons at amino acids 4 and 146, from week 8 on, FIG. 4): responded more strongly to D-peptides versus N-peptides
PBMC proliferation in response to WHV HBs antigens ([1]; positive if SI ≧3.1, FIG. 3): resulted in proliferation in response to WHV HBs antigens; also recorded: stimulated cellular immunity to viral antigen
ALT, Av(range) ([2]; week 0 (baseline)): 7.4 (4-9) Units/L
ALT, Av(range) ([2]; week 10): 15.6 (10-22) Units/L
